Assay results as given in patent US20250312352A1, “GLP-1R MODULATING COMPOUNDS” (Gilead Sciences, Inc., priority 2021, published 2025).

Biological target: T1, GLP-1R (Homo sapiens, UniProt P43220)
T1 construct: host or cells: CHO cells
Experiment: GLP-1R activation cAMP assay (Assay 1 or Assay 2)
Type: cell-based
Details: cAMP increase in CHO cells stably expressing GLP-1R; compounds run on one of the two cAMP assays
Outline: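 CHO cells stably expressing human GLP-1R were incubated 1 h in HBSS/20 mM HEPES/0.1% BSA, then exposed to 10-point agonist dilutions for 30 min at 37 °C. cAMP increase was measured with an HTRF Gs dynamic kit; EC50 from sigmoidal fit of response versus log concentration.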

T1 sequence (P43220 24-463): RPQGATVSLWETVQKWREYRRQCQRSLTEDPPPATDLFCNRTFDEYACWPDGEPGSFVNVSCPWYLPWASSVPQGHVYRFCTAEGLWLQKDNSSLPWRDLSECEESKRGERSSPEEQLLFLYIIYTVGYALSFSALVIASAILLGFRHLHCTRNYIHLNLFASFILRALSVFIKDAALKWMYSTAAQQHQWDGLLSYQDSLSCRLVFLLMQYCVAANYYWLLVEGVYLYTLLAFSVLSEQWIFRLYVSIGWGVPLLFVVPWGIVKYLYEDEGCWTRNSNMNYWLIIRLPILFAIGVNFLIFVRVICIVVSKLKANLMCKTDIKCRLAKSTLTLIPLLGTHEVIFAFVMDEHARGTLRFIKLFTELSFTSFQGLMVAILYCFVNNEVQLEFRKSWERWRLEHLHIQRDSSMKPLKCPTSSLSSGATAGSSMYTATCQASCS

| EC50 | Structure (SMILES) |
| --- | --- |
| 0.6 nM | Cn1cc(C#Cc2ccc(COc3cccc(-c4cc(F)c(Cc5nc6ccc(C(=O)O)cc6n5C[C@@H]5CCO5)cc4F)n3)cn2)cn1 [Example 147, (S)-2-(2,5-difluoro-4-(6-((6-((1-methyl-1H-pyrazol-4-yl)ethynyl)pyridin-3-yl)methoxy)pyridin-2-yl)benzyl)-1-(oxetan-2-ylmethyl)-1H-benzo[d]imidazole-6-carboxylic acid] |
| 1.77 nM | Cc1cc(Cc2nc3ccc(C(=O)O)cc3n2[C@@H]2COCC2(C)C)c(Cl)cc1-c1ccc(F)c(OCc2ncc(C(F)(F)F)s2)n1 [Example 371, (S)-2-(2-chloro-4-(5-fluoro-6-((5-(trifluoromethyl)thiazol-2-yl)methoxy)pyridin-2-yl)-5-methylbenzyl)-1-(4,4-dimethyltetrahydrofuran-3-yl)-1H-benzo[d]imidazole-6-carboxylic acid] |
| 0.05 nM | Cn1cc(C#Cc2cnc(COc3cccc(-c4cc(F)c(Cc5nc6c(F)cc(C(=O)O)cc6n5C[C@@H]5CCO5)cc4F)n3)s2)cn1 [Example 111, 2-[[2,5-difluoro-4-[6-[[5-[2-(1-methylpyrazol-4-yl)ethynyl]thiazol-2-yl]methoxy]-2-pyridyl]phenyl]methyl]-7-fluoro-3-[[(2S)-oxetan-2-yl]methyl]benzimidazole-5-carboxylic acid] |
| 0.152 nM | CCOc1nnc(COc2nc(-c3cc(F)c(Cc4nc5ccc(C(=O)O)cc5n4[C@@H]4COCC4(C)C)c(F)c3F)ccc2F)s1 [Example 265, (S)-1-(4,4-dimethyltetrahydrofuran-3-yl)-2-(4-(6-((5-ethoxy-1,3,4-thiadiazol-2-yl)methoxy)-5-fluoropyridin-2-yl)-2,3,6-trifluorobenzyl)-1H-benzo[d]imidazole-6-carboxylic acid] |
| 0.58 nM | CC1(C)COC[C@@H]1n1c(Cc2cc(F)c(-c3cccc(OCc4ccc(C(=O)NC5(C#N)CC5)nc4)n3)cc2F)nc2ccc(C(=O)O)cc21 [Example 202, (R)-2-(4-(6-((6-((1-cyanocyclopropyl)carbamoyl)pyridin-3-yl)methoxy)pyridin-2-yl)-2,5-difluorobenzyl)-1-(4,4-dimethyltetrahydrofuran-3-yl)-1H-benzo[d]imidazole-6-carboxylic acid] |
| 0.413 nM | CC1(C)COC[C@H]1n1c(Cc2cc(F)c(-c3cccc(OCc4nnc(C(F)(F)F)s4)n3)cc2F)nc2ccc(C(=O)O)cc21 [Example 433, (S)-2-(2,5-difluoro-4-(6-((5-(trifluoromethyl)-1,3,4-thiadiazol-2-yl)methoxy)pyridin-2-yl)benzyl)-1-(4,4-dimethyltetrahydrofuran-3-yl)-1H-benzo[d]imidazole-6-carboxylic acid] |
| 0.129 nM | N#Cc1cccc(C#Cc2cnc(COc3cccc(-c4cc(F)c(Cc5nc6ccc(C(=O)O)cc6n5C[C@@H]5CCO5)cc4F)n3)s2)c1 [Example 316, (S)-2-(4-(6-((5-((3-cyanophenyl)ethynyl)thiazol-2-yl)methoxy)pyridin-2-yl)-2,5-difluorobenzyl)-1-(oxetan-2-ylmethyl)-1H-benzo[d]imidazole-6-carboxylic acid] |
| 0.374 nM | CC1(C)COC[C@H]1n1c(Cc2cc(F)c(-c3cccc(OCc4ncc(Cl)s4)n3)cc2F)nc2ccc(C(=O)O)cc21 [Example 254, (S)-2-(4-(6-((5-chlorothiazol-2-yl)methoxy)pyridin-2-yl)-2,5-difluorobenzyl)-1-(4,4-dimethyltetrahydrofuran-3-yl)-1H-benzo[d]imidazole-6-carboxylic acid] |
| 7 nM | Cc1nc(COc2cccc(-c3cc(F)c(Cc4nc5ccc(C(=O)O)cc5n4C[C@@H]4CCO4)cc3F)n2)no1 [Example 17, (S)-2-(2,5-difluoro-4-(6-((5-methyl-1,2,4-oxadiazol-3-yl)methoxy)pyridin-2-yl)benzyl)-1-(oxetan-2-ylmethyl)-1H-benzo[d]imidazole-6-carboxylic acid] |
| 0.13 nM | Cn1cc(C#Cc2ccc(COc3cccc(-c4cc(F)c(Cc5nc6ccc(C(=O)O)cc6n5C[C@@H]5CCO5)cc4F)n3)s2)cn1 [Example 112, (S)-2-(2,5-difluoro-4-(6-((5-((1-methyl-1H-pyrazol-4-yl)ethynyl)thiophen-2-yl)methoxy)pyridin-2-yl)benzyl)-1-(oxetan-2-ylmethyl)-1H-benzo[d]imidazole-6-carboxylic acid] |
| 0.48 nM | O=C(O)c1ccc2nc(Cc3cc(F)c(-c4cccc(OCc5ccc(-c6cn([C@@H]7CCOC7)nn6)cc5F)n4)cc3F)n(C[C@@H]3CCO3)c2c1 [Example 213] |
| 3.45 nM | COc1nnc(COc2nc(-c3cc(Cl)c(Cc4nc5c(F)cc(C(=O)O)cc5n4C[C@@H]4CCO4)cc3C)ccc2F)s1 [Example 443, (S)-2-(2-chloro-4-(5-fluoro-6-((5-methoxy-1,3,4-thiadiazol-2-yl)methoxy)pyridin-2-yl)-5-methylbenzyl)-4-fluoro-1-(oxetan-2-ylmethyl)-1H-benzo[d]imidazole-6-carboxylic acid] |
| 0.96 nM | O=C(O)c1ccc2nc(Cc3cc(F)c(-c4cccc(OCc5nnc(C(F)F)s5)n4)cc3F)n(C[C@@H]3CCO3)c2c1 [Example 15, (S)-2-(4-(6-((5-(difluoromethyl)-1,3,4-thiadiazol-2-yl)methoxy)pyridin-2-yl)-2,5-difluorobenzyl)-1-(oxetan-2-ylmethyl)-1H-benzo[d]imidazole-6-carboxylic acid] |
| 22.6 nM | COCCn1c(Cc2cc(F)c(-c3cccc(OCc4ccc(-n5cnc(C6CC6)n5)nc4)n3)cc2F)nc2ccc(C(=O)O)cc21 [Example 250, 2-(4-(6-((6-(3-cyclopropyl-1H-1,2,4-triazol-1-yl)pyridin-3-yl)methoxy)pyridin-2-yl)-2,5-difluorobenzyl)-1-(2-methoxyethyl)-1H-benzo[d]imidazole-6-carboxylic acid] |
| 0.235 nM | COc1nnc(COc2nc(-c3cc(F)c(Cc4nc5c(Cl)cc(C(=O)O)cc5n4[C@@H]4COCC4(C)C)cc3F)ccc2F)s1 [Example 367, (S)-4-chloro-2-(2,5-difluoro-4-(5-fluoro-6-((5-methoxy-1,3,4-thiadiazol-2-yl)methoxy)pyridin-2-yl)benzyl)-1-(4,4-dimethyltetrahydrofuran-3-yl)-1H-benzo[d]imidazole-6-carboxylic acid] |
| 0.043 nM | COc1nnc(COc2nc(-c3cc(F)c(Cc4nc5ccc(C(=O)O)cc5n4[C@@H]4COCC4(C)C)cc3F)ccc2F)s1 [Example 339, (S)-2-(2,5-difluoro-4-(5-fluoro-6-((5-methoxy-1,3,4-thiadiazol-2-yl)methoxy)pyridin-2-yl)benzyl)-1-(4,4-dimethyltetrahydrofuran-3-yl)-1H-benzo[d]imidazole-6-carboxylic acid] |
| 0.16 nM | O=C(O)c1ccc2nc(Cc3cc(F)c(-c4cccc(OCc5cnc(-c6cnn(C7COC7)c6)cc5F)n4)cc3F)n(C[C@@H]3CCO3)c2c1 [Example 162, (S)-2-(2,5-difluoro-4-(6-((4-fluoro-6-(1-(oxetan-3-yl)-1H-pyrazol-4-yl)pyridin-3-yl)methoxy)pyridin-2-yl)benzyl)-1-(oxetan-2-ylmethyl)-1H-benzo[d]imidazole-6-carboxylic acid] |
| 0.56 nM | Cn1ccc(CNC(=O)c2cc(Cl)c(COc3cccc(-c4cc(F)c(Cc5nc6ccc(C(=O)O)cc6n5C[C@@H]5CCO5)cc4F)n3)cn2)n1 [Example 366, (S)-2-(4-(6-((4-chloro-6-(((1-methyl-1H-pyrazol-3-yl)methyl)carbamoyl)pyridin-3-yl)methoxy)pyridin-2-yl)-2,5-difluorobenzyl)-1-(oxetan-2-ylmethyl)-1H-benzo[d]imidazole-6-carboxylic acid] |
| 0.21 nM | O=C(O)c1ccc2nc(Cc3cc(F)c(-c4cccc(OCc5cc(F)c(Br)s5)n4)cc3F)n(C[C@@H]3CCO3)c2c1 [Example 51, (S)-2-(4-(6-((5-bromo-4-fluorothiophen-2-yl)methoxy)pyridin-2-yl)-2,5-difluorobenzyl)-1-(oxetan-2-ylmethyl)-1H-benzo[d]imidazole-6-carboxylic acid] |
| 0.341 nM | Cn1cc(C#Cc2ccc(COc3cccc(-c4cc(F)c(Cc5nc6ccc(C(=O)O)cc6n5C[C@@H]5CCO5)cc4F)n3)c(F)c2)nn1 [Example 301, (S)-2-(2,5-difluoro-4-(6-((2-fluoro-4-((1-methyl-1H-1,2,3-triazol-4-yl)ethynyl)benzyl)oxy)pyridin-2-yl)benzyl)-1-(oxetan-2-ylmethyl)-1H-benzo[d]imidazole-6-carboxylic acid] |
| 0.191 nM | COc1nnc(COc2nc(-c3cc(F)c(Cc4nc5ccc(C(=O)O)cc5n4[C@@H]4COCC4(C)C)c(F)c3F)ccc2F)s1 [Example 270, (S)-1-(4,4-dimethyltetrahydrofuran-3-yl)-2-(2,3,6-trifluoro-4-(5-fluoro-6-((5-methoxy-1,3,4-thiadiazol-2-yl)methoxy)pyridin-2-yl)benzyl)-1H-benzo[d]imidazole-6-carboxylic acid] |
| 0.33 nM | Cn1ncc2cc(COc3cccc(-c4cc(F)c(Cc5nc6ccc(C(=O)O)cc6n5C[C@@H]5CCO5)cc4F)n3)sc21 [Example 230, 2-[[2,5-difluoro-4-[6-[(1-methylthieno[2,3-c]pyrazol-5-yl)methoxy]-2-pyridyl]phenyl]methyl]-3-[[(2S)-oxetan-2-yl]methyl]benzimidazole-5-carboxylic acid] |
| 0.5 nM | NC(=O)c1csc(COc2cccc(-c3cc(F)c(Cc4nc5ccc(C(=O)O)cc5n4C[C@@H]4CCO4)cc3F)n2)n1 [Example 5, (S)-2-(4-(6-((4-carbamoylthiazol-2-yl)methoxy)pyridin-2-yl)-2,5-difluorobenzyl)-1-(oxetan-2-ylmethyl)-1H-benzo[d]imidazole-6-carboxylic acid] |
| 0.039 nM | COc1nnc(COc2cccc(-c3cc(F)c(Cc4nc5ccc(C(=O)O)cc5n4[C@@H]4COCC4(C)C)cc3F)n2)s1 [Example 342, (S)-2-(2,5-difluoro-4-(6-((5-methoxy-1,3,4-thiadiazol-2-yl)methoxy)pyridin-2-yl)benzyl)-1-(4,4-dimethyltetrahydrofuran-3-yl)-1H-benzo[d]imidazole-6-carboxylic acid] |
